Experimental data taken from patent US20090318396A1, “CORTICOSTEROID LINKED BETA-AGONIST COMPOUNDS FOR USE IN THERAPY” (priority 2008, published 2009).

Legend:
[1] = Stability of steroid C-21 esters, carbonates and carbamates in rat lung homogenate; conditions: for Mean [Parent] (nM) at 2 hrs, 37° C.: parent compound; for Mean % compound remaining at 2 hrs, 37° C.: 900 nM, n=3
Experimental: Lungs from Fischer 344 rats were obtained fresh by overnight delivery at 4° C. from BioReclamation Inc. (Hicksville, N.Y.). Lungs were weighed and homogenized in a 1:3 w/v ratio with sterile phosphate buffered saline (PBS, 10 mM, pH 7.4) in glass vials on ice. After centrifugation at 3,000×g for 10 min at 4° C. the supernatant was decanted into sterile conical tubes and placed on ice. The total protein content of the supernatant was determined by the bicinchoninic acid (BCA) method (Pierce Biotechnology, Rockford, Ill.), using bovine serum albumin (BSA) as the standard. Lung homogenates were prepared to a final concentration of 1 mg total protein/mL in 10 mM PBS, pH 7.4.
Heat-inactivation was achieved by incubation at 80° C. for 30 min, after which the homogenate was allowed to cool to room temperature, stored overnight at 4° C. The homogenate was used for the assay and standard curve preparations. Before use, each homogenate preparation was equilibrated for 15 min in a 37° C. water bath. […] DMSO (2.7 uL) added to 3 mL of temperature-equilibrated homogenate served as a control. Aliquots (100 uL) of homogenate+compound were added to 400 μL quenching solution consisting of 100% HPLC-grade acetonitrile+500 ng/mL glyburide for the zero time point (n=3 for each time point).
The glyburide served as an internal LC/MS/MS standard. The remainder of each drug+homogenate solution was aliquoted into a 96-well tissue culture plates. After an additional 30 min and 120 min incubation at 37° C., 100 μL aliquots were added to 400 μL quenching solution. Denatured proteins in the quenching solution were separated by centrifugation at 3000×g for 2 min at 4° C., and 160 μL of the supernatants were transferred to new 96-well plate for analysis by LC/MS/MS. Collection plates were covered with plastic film and were kept on ice. For storage, covered plates were and kept stored at −80° C. until further use.
An aliquot of 50 μL of each sample was diluted with 50 μL of water containing internal standard at 4° C. The diluted samples were then centrifuged for 20 minutes at 3000 rpm at 4° C. An aliquot of 20 μL of the solution was injected into the TSQ Ultra Quantum.
LC/MS/MS system. The compounds were separated by HPLC using a HyPurity C18 HPLC column (30×2.1 mm, 5μ) from ThermoHypersil. A Multiplex LX-2 HPLC system (Cohesive Technologies, Franklin, Mass.) with two identical Agilent 1100 series binary pumps (P/N G1312A) were used for elution and separation. Samples were maintained at 4° C. in an HTS Pal autosampler (LEAP Technologies, Carrboro, N.C.) in order to reduce any potential spontaneous hydrolysis of the compounds before injection onto the HPLC. The analytes were eluted using the following mobile phases; Mobile phase A contained 1% acetonitrile in 10 mM ammonium formate aqueous solution with 1% formic acid. Mobile phase B contained 80% acetonitrile in 10 mM ammonium formate with 1% formic acid. The HPLC elution program used to elute the analytes was as follows:
The samples were further analyzed by tandem mass spectrometry using a TSQ Quantum Ultra triple quadrupole mass spectrometer (Thermo Finnigan, San Jose, Calif.) using a selective reaction monitoring (SRM) scan type. The mass spectrometry parameters used were as follows:
Nine-point standard curves for each test compound were prepared and analyzed in heat-inactivated lung homogenate. […] The data expressed in Table 2 represent the mean (n=3) percent remaining compound in both types of homogenate at 2 hours, 37° C.

[2] = Drug levels in plasma, BALF and lung after IT administration in the rat; conditions: for Plasma Conc: analyte after IT administration of Example 83, 1 mg/kg
Experimental: Compounds of Examples 52 and 83 were formulated for intratracheal (IT) dosing in 10% EtOH, 90% Sterile Water, and dosed in male Sprague-Dawley rats at 3 mg/kg (Example 52) and 1 mg/kg (Example 83). Each dosing group consisted of 3 male, naïve purebred Sprague-Dawley rats. At dosing, the animals weighed ˜0.30 kg. The animals were fasted overnight prior to dose administration and up to 2 hr after dosing. The compounds were administered IT using a Penn Century Microsprayer (Model 1A-1B).
Blood samples were collected at 0.5, 2, and 4 hours post-dose. Each blood sample (0.5-0.6 mL per sample) was collected via the orbital sinus (following anesthesia for BAL procedure) into tubes containing EDTA anti-coagulant into containers surrounded by dry ice at 0.5, 2 and 4 hr (mean, n=6). Blood samples were stored at −20±5° C. until shipped for analysis.
The animals were anesthetized with an intramuscular (IM) injection of a ketamine/xylazine/acepromazine (80/10/2 mg/kg) cocktail at a dose volume of 1.1 mL/kg. A cannula (modified Bard® infant feeding tube) was inserted into the trachea. Warmed sterile saline was injected into the lungs. The lungs were gently massaged by palpation of the chest for approximately 45 seconds. The fluid (BALF) was recovered and placed on ice. The procedure was repeated two more times, and all three BALF samples pooled. The fluid was centrifuged under refrigerated conditions at 350 g for 10 minutes. The supernatant and cell pellet were collected and stored at approximately −70° C. until shipped for analysis.
Immediately following each BAL procedure, the lungs from each animal were removed, blotted dry, weighed, and stored frozen at −70° C. until shipped for analysis.
An LC/MS/MS method was used to measure the concentration of compound in plasma.
Add 3×w/v of 1×PBS buffer (90:10-PBS:ACN) to each lung tissue. Homogenize the sample w/Polytron (PT1200) and take 50 uL of supernatant and inject to LC/MSMS.
An aliquot of 50 μL of each plasma sample was treated with 100 mL of acetonitrile (ACN) containing internal standard. After the protein precipitation, an aliquot of 100 μL of the supernatant was transferred to a clean 96-well plate and mixed with 100 μL of water. An aliquot of 30 μL of the above solution was injected to the TSQ Ultra Quantum LC/MS/MS system.
A HyPurity C18 HPLC column (30×2.1 mm, 5μ) from ThermoHypersil (Part #: 22105-032130) was used. Mobile phase A contained 1% acetonitrile in 10 mM ammonium formate aqueous solution with 1% formic acid. Mobile phase B contained 80% acetonitrile in 10 mM ammonium formate with 1% formic acid. An Agilent 1100 series binary pump (P/N G1312A Bin Pump) was used for elution and separation. HTS Pal autosampler from LEAP Technologies, Carrboro, N.C. was used.
TSQ Quantum Ultra triple quadrupole mass spectrometer from Thermo Finnigan, San Jose, Calif. was used in selective reaction monitoring (SRM) operation mode, Tune file:

[3] = Inactive (heat-inactivated) rat lung homogenate

CC(CN(C)C)OC(=O)OCC(=O)[C@@]12O[C@H](C3CCCCC3)O[C@@H]1C[C@H]1[C@@H]3CCC4=CC(=O)C=C[C@]4(C)[C@H]3[C@@H](O)C[C@@]12C (some centres unmarked) [Example 28]
Mean [Parent] (nM) at 2 hrs, 37° C. ([1]; Active homogenate): 120 nM
Mean % compound remaining at 2 hrs, 37° C. ([1]; Active rat lung homogenate): 45%
Mean % compound remaining at 2 hrs, 37° C. [1, 3]: 64%
Mean [Parent] (nM) at 2 hrs, 37° C. ([1]; Inactive homogenate): 147 nM

C[C@]12C=CC(=O)C=C1CC[C@@H]1[C@@H]2[C@@H](O)C[C@@]2(C)[C@H]1C[C@H]1O[C@@H](C3CCCCC3)O[C@]12C(=O)COC(=O)c1cccnc1 [Example 29, Nicotinic acid [[11β,16α]-[[((R)-cyclohexylmethylene)bis(oxy)]-11-hydroxypregna-1,4-diene-3,20-dion-21-yl]]ester]
Mean [Parent] (nM) at 2 hrs, 37° C. ([1]; Active homogenate): 2 nM
Mean % compound remaining at 2 hrs, 37° C. ([1]; Active rat lung homogenate): 1%
Mean % compound remaining at 2 hrs, 37° C. [1, 3]: 72%
Mean [Parent] (nM) at 2 hrs, 37° C. ([1]; Inactive homogenate): 130 nM

CCN(CC)Cc1cccc(C(=O)OCC(=O)[C@@]23O[C@H](C4CCCCC4)O[C@@H]2C[C@H]2[C@@H]4CCC5=CC(=O)C=C[C@]5(C)[C@H]4[C@@H](O)C[C@@]23C)c1 [Example 31, 3-Diethylaminomethylbenzoic acid [[11β,16α]-[[((R)-cyclohexylmethylene)bis(oxy)]-11-hydroxypregna-1,4-diene-3,20-dion-21-yl]]ester]
Mean [Parent] (nM) at 2 hrs, 37° C. ([1]; Active homogenate): 127 nM
Mean % compound remaining at 2 hrs, 37° C. ([1]; Active rat lung homogenate): 68%
Mean % compound remaining at 2 hrs, 37° C. [1, 3]: 68%
Mean [Parent] (nM) at 2 hrs, 37° C. ([1]; Inactive homogenate): 127 nM

CCN(CC)CC(=O)OCC(=O)[C@@]12O[C@H](C3CCCCC3)O[C@@H]1C[C@H]1[C@@H]3CCC4=CC(=O)C=C[C@]4(C)[C@H]3[C@@H](O)C[C@@]12C [Example 32, 4-Diethylaminoacetic acid [[11β,16α]-[[((R)-cyclohexylmethylene)bis(oxy)]-11-hydroxypregna-1,4-diene-3,20-dion-21-yl]]ester]
Mean [Parent] (nM) at 2 hrs, 37° C. ([1]; Active homogenate): 1 nM
Mean % compound remaining at 2 hrs, 37° C. ([1]; Active rat lung homogenate): 1%
Mean % compound remaining at 2 hrs, 37° C. [1, 3]: 61%
Mean [Parent] (nM) at 2 hrs, 37° C. ([1]; Inactive homogenate): 119 nM

C[C@]12C=CC(=O)C=C1CC[C@@H]1[C@@H]2[C@@H](O)C[C@@]2(C)[C@H]1C[C@H]1O[C@@H](C3CCCCC3)O[C@]12C(=O)COC(=O)/C=C/c1cccnc1 [Example 33, 3-(Pyridin-3-yl)acrylic acid [[11β,16a]-[[((R)-cyclohexylmethylene)bis(oxy)]-11-hydroxypregna-1,4-diene-3,20-dion-21-yl]]ester]
Mean [Parent] (nM) at 2 hrs, 37° C. ([1]; Active homogenate): 4 nM
Mean % compound remaining at 2 hrs, 37° C. ([1]; Active rat lung homogenate): 3%
Mean % compound remaining at 2 hrs, 37° C. [1, 3]: 78%
Mean [Parent] (nM) at 2 hrs, 37° C. ([1]; Inactive homogenate): 124 nM

C[C@]12C=CC(=O)C=C1CC[C@@H]1[C@@H]2[C@@H](O)C[C@@]2(C)[C@H]1C[C@H]1O[C@@H](C3CCCCC3)O[C@]12C(=O)COC(=O)CCc1cccnc1 [Example 34, 3-(Pyridin-3-yl)propionic acid [[11β,16α]-[[((R)-cyclohexylmethylene)bis(oxy)]-11-hydroxypregna-1,4-diene-3,20-dion-21-yl]]ester]
Mean [Parent] (nM) at 2 hrs, 37° C. ([1]; Active homogenate): 1 nM
Mean % compound remaining at 2 hrs, 37° C. ([1]; Active rat lung homogenate): 0%
Mean % compound remaining at 2 hrs, 37° C. [1, 3]: 73%
Mean [Parent] (nM) at 2 hrs, 37° C. ([1]; Inactive homogenate): 159 nM

CN1CCC[C@H]1C(=O)OCC(=O)[C@@]12O[C@H](C3CCCCC3)O[C@@H]1C[C@H]1[C@@H]3CCC4=CC(=O)C=C[C@]4(C)[C@H]3[C@@H](O)C[C@@]12C [Example 38, (S) 1-Methylpyrrolidinecarboxylic acid [[11β,16α]-[[((R)-cyclohexylmethylene)bis(oxy)]-11-hydroxypregna-1,4-diene-3,20-dion-21-yl]]ester]
Mean [Parent] (nM) at 2 hrs, 37° C. ([1]; Active homogenate): 1 nM
Mean % compound remaining at 2 hrs, 37° C. ([1]; Active rat lung homogenate): 1%
Mean % compound remaining at 2 hrs, 37° C. [1, 3]: 40%
Mean [Parent] (nM) at 2 hrs, 37° C. ([1]; Inactive homogenate): 71 nM

CN(C)CCNC(=O)OCC(=O)[C@@]12O[C@H](C3CCCCC3)O[C@@H]1C[C@H]1[C@@H]3CCC4=CC(=O)C=C[C@]4(C)[C@H]3[C@@H](O)C[C@@]12C [Example 39, 2-Dimethylaminoethylcarbamic acid [[11β,16α]-[[((R)-cyclohexylmethylene)bis(oxy)]-11-hydroxypregna-1,4-diene-3,20-dion-21-yl]]ester]
Mean [Parent] (nM) at 2 hrs, 37° C. ([1]; Active homogenate): 186 nM
Mean % compound remaining at 2 hrs, 37° C. ([1]; Active rat lung homogenate): 92%
Mean % compound remaining at 2 hrs, 37° C. [1, 3]: 78%
Mean [Parent] (nM) at 2 hrs, 37° C. ([1]; Inactive homogenate): 162 nM

CN(C)CCN(C)C(=O)OCC(=O)[C@@]12O[C@H](C3CCCCC3)O[C@@H]1C[C@H]1[C@@H]3CCC4=CC(=O)C=C[C@]4(C)[C@H]3[C@@H](O)C[C@@]12C [Example 40, 2-Dimethylaminoethyl(methyl)carbamic acid [[11β,16α]-[[((R) -cyclohexylmethylene)bis(oxy)]-11-hydroxypregna-1,4-diene-3,20-dion-21-yl]]ester]
Mean [Parent] (nM) at 2 hrs, 37° C. ([1]; Active homogenate): 222 nM
Mean % compound remaining at 2 hrs, 37° C. ([1]; Active rat lung homogenate): 83%
Mean % compound remaining at 2 hrs, 37° C. [1, 3]: 78%
Mean [Parent] (nM) at 2 hrs, 37° C. ([1]; Inactive homogenate): 167 nM

CN1CCN(C(=O)OCC(=O)[C@@]23O[C@H](C4CCCCC4)O[C@@H]2C[C@H]2[C@@H]4CCC5=CC(=O)C=C[C@]5(C)[C@H]4[C@@H](O)C[C@@]23C)CC1 [Example 41, 4-Methylpiperazinecarboxylic acid [[11β,16α]-[[((R)-cyclohexylmethylene)bis(oxy)]-11-hydroxypregna-1,4-diene-3,20-dion-21-yl]]ester]
Mean [Parent] (nM) at 2 hrs, 37° C. ([1]; Active homogenate): 170 nM
Mean % compound remaining at 2 hrs, 37° C. ([1]; Active rat lung homogenate): 68%
Mean % compound remaining at 2 hrs, 37° C. [1, 3]: 78%
Mean [Parent] (nM) at 2 hrs, 37° C. ([1]; Inactive homogenate): 172 nM

CC(C)[C@@H](N)C(=O)OCC(=O)[C@@]12O[C@H](C3CCCCC3)O[C@@H]1C[C@H]1[C@@H]3CCC4=CC(=O)C=C[C@]4(C)[C@H]3[C@@H](O)C[C@@]12C [Example 50, Valine [[11β,16α]-[16,17-((R)-cyclohexylmethylene)bis(oxy)]-11-hydroxypregna-1,4-diene-3,20-dion-21-yl]ester]
Mean [Parent] (nM) at 2 hrs, 37° C. ([1]; Active homogenate): 219 nM
Mean % compound remaining at 2 hrs, 37° C. ([1]; Active rat lung homogenate): 45%
Mean % compound remaining at 2 hrs, 37° C. [1, 3]: 25%
Mean [Parent] (nM) at 2 hrs, 37° C. ([1]; Inactive homogenate): 50 nM

CC(C)[C@@H](NC(=O)c1cccnc1)C(=O)OCC(=O)[C@@]12O[C@H](C3CCCCC3)O[C@@H]1C[C@H]1[C@@H]3CCC4=CC(=O)C=C[C@]4(C)[C@H]3[C@@H](O)C[C@@]12C [Example 51, N-(Pyridin-3-carbonyl)valine [[11β,16α]-[16,17-((R)-cyclohexylmethylene)bis(oxy)]-11-hydroxypregna-1,4-diene-3,20-dion-21-yl]ester]
Mean [Parent] (nM) at 2 hrs, 37° C. ([1]; Active homogenate): 176 nM
Mean % compound remaining at 2 hrs, 37° C. ([1]; Active rat lung homogenate): 86%
Mean % compound remaining at 2 hrs, 37° C. [1, 3]: 85%
Mean [Parent] (nM) at 2 hrs, 37° C. ([1]; Inactive homogenate): 169 nM

CN(C)CC(=O)OCC(=O)[C@@]12O[C@H](C3CCCCC3)O[C@@H]1C[C@H]1[C@@H]3CCC4=CC(=O)C=C[C@]4(C)[C@H]3[C@@H](O)C[C@@]12C [Example 75, N,N-Dimethylglycine [[11β,16α]-[16,17-((R)-cyclohexylmethlylene)bis(oxy)]-11-hydroxypregna-1,4-diene-3,20-dion-21-yl]ester]
Mean [Parent] (nM) at 2 hrs, 37° C. ([1]; Active homogenate): 1 nM
Mean % compound remaining at 2 hrs, 37° C. ([1]; Active rat lung homogenate): 1%
Mean % compound remaining at 2 hrs, 37° C. [1, 3]: 55%
Mean [Parent] (nM) at 2 hrs, 37° C. ([1]; Inactive homogenate): 101 nM

C[C@]12C=CC(=O)C=C1CC[C@@H]1[C@@H]2[C@@H](O)C[C@@]2(C)[C@H]1C[C@H]1O[C@@H](C3CCCCC3)O[C@]12C(=O)COC(=O)Cc1cccnc1 [Example 76, 3-Pyridineacetic acid [[11β,16α]-[16,17-((R)-cyclohexylmethylene)bis(oxy)]-11-hydroxypregna-1,4-diene-3,20-dion-21-yl]ester]
Mean [Parent] (nM) at 2 hrs, 37° C. ([1]; Active homogenate): 4 nM
Mean % compound remaining at 2 hrs, 37° C. ([1]; Active rat lung homogenate): 2%
Mean % compound remaining at 2 hrs, 37° C. [1, 3]: 83%
Mean [Parent] (nM) at 2 hrs, 37° C. ([1]; Inactive homogenate): 142 nM

CC(C)[C@@H](C(=O)OCC(=O)[C@@]12O[C@H](C3CCCCC3)O[C@@H]1C[C@H]1[C@@H]3CCC4=CC(=O)C=C[C@]4(C)[C@H]3[C@@H](O)C[C@@]12C)N(C)C [Example 79, N,N-dimethylvaline [[11β,16α]-[16,17-((R)-cyclohexylmethylene)bis(oxy)]-11-hydroxypregna-1,4-diene-3,20-dion-21-yl]ester]
Mean [Parent] (nM) at 2 hrs, 37° C. ([1]; Active homogenate): 149 nM
Mean % compound remaining at 2 hrs, 37° C. ([1]; Active rat lung homogenate): 85%
Mean % compound remaining at 2 hrs, 37° C. [1, 3]: 61%
Mean [Parent] (nM) at 2 hrs, 37° C. ([1]; Inactive homogenate): 88 nM

CC[N+](CC)(CC(=O)OCC(=O)[C@@]12O[C@H](C3CCCCC3)O[C@@H]1C[C@H]1[C@@H]3CCC4=CC(=O)C=C[C@]4(C)[C@H]3[C@@H](O)C[C@@]12C)Cc1cc([C@@H](O)CNCCCCCCOCCCCc2ccccc2)ccc1OP(=O)(O)O.[Cl-] [Example 83, [5-[1-(R)-hydroxy-2-[6-(4-phenylbutoxy)hexylamino]ethyl]-2-phosphonooxybenzyl]-(diethyl)-[[11β,16α]-[16,17-((R-cyclohexylmethylene)bis(oxy)]-11-hydroxypregna-1,4-diene-3,20-dion-21-oxy]-carbonylmethyl]ammonium chloride]
Metabolism in the lung following IT administration ([2]; IT): metabolized to Salmeterol and Desisobutyryl Ciclesonide in the lung

C[C@]12C=CC(=O)C=C1CC[C@@H]1[C@@H]2[C@@H](O)C[C@@]2(C)[C@H]1C[C@H]1O[C@@H](C3CCCCC3)O[C@]12C(=O)CO [des-ciclesonide, desisobutyryl ciclesonide, reference compound]
Plasma Conc ([2]; 0.5 hr): BLQ
Plasma Conc ([2]; 2.0 hr): BLQ
Plasma Conc ([2]; 4.0 hr): BLQ
Mean [Parent] (nM) at 2 hrs, 37° C. ([1]; Active homogenate): 119 nM
Mean % compound remaining at 2 hrs, 37° C. ([1]; Active rat lung homogenate): 98%
Mean % compound remaining at 2 hrs, 37° C. [1, 3]: 71%
Mean [Parent] (nM) at 2 hrs, 37° C. ([1]; Inactive homogenate): 84 nM
